# Entries after “also recorded” stand apart in the source; their conditions may differ.
# Columns and labels:
# HRMECs [1] = assay: Apoptosis of HRMECs in serum (TUNEL); type: cell-based, human; details: HRMECs in serum (10% FBS)
# Experimental: (§1) HUVECs were plated on collagen coated plastic bottom culture dishes (MatTek Corp., Ashland, Mass.) overnight. […] HRMEC were treated with 15 μM of racemic Nutlin for 24 hours in 10% FBS. The TUNEL assay was performed following instructions provided with the kit (Roche Applied Science, Indianapolis, Ind.). Representative images of the HRMEC experiment were provided with a 4× objective using an Olympus AX70 fluorescence microscope following the addition of a nuclear counter stain. For HUVEC experiments, 5 representative fields with a 20× objective using a Zeiss confocal microscope were captured. 2 masked observers performed cell counts. For wholemount retina staining, TUNEL solution was incubated for 48 hours diluted in PBS plus 0.3% Triton-X 100 after lectin staining.
# HRMECs [2] = assay: Cell viability/proliferation, HRMECs in serum; type: cell-based, human; details: racemic Nutlin-3
# Experimental: (§2) Cells were seeded at a concentration of 2×10^5 for HUVECs and 2×10^4 for HUVSMCs in serum free media on 12 well plates after detachment. The cells were allowed to adhere overnight in growth media, and then incubated with X-VIVO media (Cambrex) with or without cytokines (10 ng/ml FGF-2 and 2 μg/ml heparin or 10 ng/ml VEGF-A). For HRMEC experiments, cells were seeded at a concentration of 1×10^5 and allowed to settle overnight in 6-cm plates coated with attachment factor (Cell Signaling, Danvers, Mass.). The next day, fresh 10% FBS and EBM medium was added. […] After incubation, HUVEC were detached with collagenase/EDTA and HUVSMC and HRMEC were detached with trypsin/EDTA. The cells were manually counted with a Hemacytometer (Hausser Scientific, Horsham, Pa.) using Trypan blue exclusion.
# HUVECs [3] = assay: Apoptosis of endothelial cells (HUVECs) in serum enriched media; type: cell-based, human
# [4] = test system: retinal vessels of adult mice; assay: In vivo adult retinal vessel assay (intravitreal injection); design: species or system mouse; details: five days after injection
# Experimental: Adult, three month old, 129 and C57/BL6/129S mice were anesthetized with Avertin and also given a drop of topical proparacaine 1% for local anesthesia. Using a stereo microscope, a glass capillary pipette was used to inject 1 μL of either vehicle or racemic Nutlin-3 into the vitreous of cavity of both eyes of each animal. Mice were then euthanized five days after injection. All procedures involving mice were approved and monitored by the Weill Medical College of Cornell University and Hospital for Special Surgery Animal Care and Use Committees. The eyes were then fixed in 4% paraformaldeheyde overnight and washed three times with PBS. After removing the cornea and lens, the hyaloidal (primitive) vasculature was removed and four radial incisions were made in the eyecup to flatten the retina/choroid/sclera complex. The choroid and sclera were removed from the retina and cut at the optic nerve. After the retinal wholemount was blocked with 5% bovine serum albumin, 5% normal donkey serum, and 0.5% TritonX-100 for 3 hours or overnight, the wholemount was incubated with a 1:200 dilution of GS-IB4 lectin overnight and mounted with Vectashield (Vector Laboratories). […]
# p53 [5] = assay: p53 expression in HRMECs; type: cell-based, human; details: racemic Nutlin-3, 10% FBS
# Experimental: (§3) HUVECs and HUVSMCs were incubated at 2×10^6 in X-VIVO media and HRMECs in EBM with 10% FBS under various conditions as reported in the results. Western blot extracts were prepared by lysing cells attached cells in cold RIPA buffer in the presence of protease inhibitors for HUVEC and HUVSMC and passive lysis buffer (Promega, Madison, Wis.) for HRMEC. After sonication and centrifugation to remove cell debris, the protein yield was quantified using the BCA protein assay kit (Pierce Biotechnology Inc., Rockford, Ill.). Normalized cell lysates were then mixed with sample buffer containing 2-mercaptoethanol and SDS and heated for 5 minutes at 95° C. Equal amounts of protein were run on SDS-polyacrylamide gels before being transferred to PVDF membranes. Binding of the primary antibody against p53, p21, and beta actin was detected with enhanced chemiluminescence reagent (Amersham) using HRP-conjugated secondary antibody (1:10,000, Amersham).
# [6] = test system: retinal vasculature of mouse pups; assay: In vivo retinal vascular development assay (subcutaneous and periocular injection)
# Experimental: A technique described by Strombland et al. was modified to study the effects of Nutlin-3 on in vivo vascular development (see Stromblad S, Fotedar A, Brickner H, et al., J. Biol. Chem. 277:13371-13374 (2002), which is incorporated herein by reference. Briefly, racemic Nutlin was administered by subcutaneous injection in the nape of the neck or in the periocular area of each eye to wild type 129 S1-VIMJ (Jackson Laboratories, Bar Harbor, Me.) mouse pups within 12 hours of birth. The mice received a total of 4 (periocular experiments) or 5 (subcutaneous neck experiments) injections of either racemic Nutlin or 100% DMSO. The first injection of Nutlin was administered at a dose of 40 mg/kg while the rest were given at a dose of 80 mg/kg for experiments involving injections in the nape of the neck. A dose of 80 mg/kg was administered for all injections in the periocular series of experiments. The pups were euthanized on postnatal day 3 and the eyes were enucleated after the fused eyelids incised.
# The eyes were then fixed in 4% paraformaldeheyde overnight and washed three times with PBS. After removing the cornea and lens, the hyaloidal (primitive) vasculature was removed and four radial incisions were made in the eyecup to flatten the retina/choroid/sclera complex. The choroid and sclera were removed from the retina and cut at the optic nerve. After the retinal wholemount was blocked with 5% bovine serum albumin, 5% normal donkey serum, and 0.5% TritonX-100 for 3 hours or overnight, the wholemount was incubated with a 1:200 dilution of GS-IB4 lectin overnight and mounted with Vectashield (Vector Laboratories). For double staining wholemount experiments, retinas were incubated with primary antibody overnight at 4° C., underwent 6 one hour washes with PBS-T, followed by incubation with secondary antibody overnight at 4° C., followed by 6 one hour washes with PBS-T prior to being cover-slipped with Vectashield. Using a fluorescent biomicroscope (Carl Zeiss Discovery V12, Thornwood, N.Y.) hyaloidal vessels, vessels connected to the optic nerve, on the surface of the retina, were dissected in a masked manner. A confocal laser (Carl Zeiss LSM 510 meta) was used to obtain images of the retinal vasculature.
# We captured images with the same laser power, objective, gain, pinhole, and amplifier offset. The resultant images were masked to the analyst assessing the images. All analyzed images were captured with a 5× objective and then exported to Adobe Photoshop 7.0 (San Jose, Calif.) as high-resolution .tiff images. Using the Magic Wand tool and histogram function, the analyst recorded the number of pixels that best represented the retinal vasculature and omitted the residual hyaloidal (fetal) vasculature that was unable to be removed during dissection. Blood vessels assessed to be residual hyaloid were found at a different focal plane than retinal blood vessels and were usually connected to the optic nerve.
# [7] = test system: p53 siRNA infected HUVECs; assay: Cell viability of p53 siRNA infected HUVECs; type: cell-based, human; details: 7.5 μM, FGF-2, 48 hours; p53 siRNA vs control siRNA
# Experimental: Passage 3 HUVECs were grown to confluence. pRETRO-SUPER and pRETRO-SUPER-p53 viruses were produced by GP2 cells (Clontech, Mountain View, Calif.). Supernatant was filtered and then added to HUVECs in the presence of […] polybrene followed by 1 μg/ml of Puromycin selection for 7 days.
# To determine if the p53 pathway is necessary for the observed Nutlin-3 mediated cellular effects, we infected HUVEC with retrovirus expressing either control short interfering RNA (siRNA) or p53 siRNA. […] (A and B) HUVECs were infected with a lentiviral vector expressing p53 siRNA or control siRNA for 48 hours and then underwent Puromycin selection for 72 hours.
# HUVECs [8] = assay: Cell proliferation assay, HUVECs (manual count, Trypan blue exclusion); type: cell-based, human; details: for HUVEC proliferation: 36 hours
# Experimental: as §2
# First, we performed a dose response curve on unstimulated and stimulated serum free HUVECs. […] HUVECs were either unchallenged or challenged with VEGF-A or FGF-2 during the incubation. […] Cell viability was measured at 12, 24, and 36 hours after incubation.
# p53 [9] = assay: p53/p21 immunofluorescence and Western blot in HUVSMCs; type: cell-based, human; details: HUVSMC, 7.5 μM, within 8 hours
# Experimental: as §3
# HUVECs [10] = assay: TUNEL assay for apoptosis, HUVECs; type: cell-based, human; details: serum free HUVEC, 7.5 μM, 24 hours, compared to control
# Experimental: as §1
# HUVSMCs [11] = assay: Cell proliferation assay, HUVSMCs (manual count, Trypan blue exclusion); type: cell-based, human
# Experimental: as §2
# p53 [12] = details: HUVEC, 8 hours, compared to Nutlin-3B or control
# Experimental: as §3
# HUVECs [13] = assay: Matrigel tube assay for in vitro angiogenesis; type: cell-based, human; details: FGF-2, 24 hours
# Experimental: Matrigel matrix (Becton Dickinson, San Jose, Calif.) was kept on ice for 24 hours. Then, 200 ill of Matrigel were added to each well of a 24 well culture plate. After hardening the Matrigel at 37° C. for 30 minutes, gels were overlaid with 500 μl of X-VIVO medium containing 3×10^4 HUVECs. […] The effect of Nutlin was inspected 24 hours under an inverted light microscope. Nine overlapping images with a 10× objective were taken of each well to perform tubule length quantification. Adobe Photoshop 7.0 (Adobe Systems Inc., San Jose, Calif.) was used to make a montage image of each well. Each montage image was then imported into LSM Image Browser v3.5 (Carl Zeiss Inc., Thornwood, N.Y.) to measure tubule length. Tubule length was then standardized to the overall pixel area examined. A masked observer assessed all measurements.
# HUVECs [14] = assay: Flow cytometric analysis for apoptosis (annexin V/propidium iodide), HUVECs; type: cell-based, human; details: HUVEC, 7.5 μM, 24 hours, compared to the control
# Source text: (§4) HUVECs were detached with collagenase/EDTA and HUVSMCs were detached with trypsin/EDTA. The cells were then washed twice with PBS, and stained with propidium iodide and annexin V-FITC (Annexin V-FITC apoptosis detection kit I, Beckton Dickinson) according to the manufacturer's instructions.
# HUVSMCs [15] = assay: Flow cytometric analysis for apoptosis (annexin V/propidium iodide), HUVSMCs; type: cell-based, human; details: HUVSMC, 7.5 μM, 36 hours, compared to control
# Source text: as §4
smiles,measurement,setting,value
"COc1ccc(C2=NC(c3ccc(Cl)cc3)C(c3ccc(Cl)cc3)N2C(=O)N2CCNC(=O)C2)c(OC(C)C)c1 (racemic) [Nutlin-3, (±)-4-[4,5-bis(4-chlorophenyl)-2-(2-isopropoxy-4-methoxy-phenyl)-4,5-dihydro-imidazole-1-carbonyl]-piperazin-2-one]",apoptosis in HRMECs,HRMECs [1],induces apoptosis
same,HRMEC cell viability,HRMECs [2],sufficient to inhibit cell viability
same,apoptosis of endothelial cells,HUVECs [3],do not undergo apoptosis
same,thickness of the neuronal cell layers of the neurosensory retina (hematoxylin and eosin),[4],did not observe any gross changes in the thickness of the neuronal cell layers
same,retinal vasculature of adult mice compared to control,[4]; p>0.05,no reduction of the retinal vasculature; also recorded: no difference
same,p53 expression in HRMECs,p53 [5],upregulation of p53
same,retinal vasculature compared to sham injected mice (images),"[6]; neonatal mice, periocular injection, FIG. 6E",less retinal vasculature
same,fewer blood vessels compared to the sham-injected mice,"[6]; neonatal mice, periorbital (periocular) injection, 80 mg/kg, postnatal day 3, p<0.01",43.8%
same,calibre of retinal vessels affected,"[6]; neonatal mice, retinal wholemounts",loss of smaller caliber vessels; also recorded: preferentially targeted capillaries and smaller blood vessels
same,reduction in the amount of retinal vessels compared to sham injected mice,"[6]; neonatal mice, subcutaneous injection in the nape of the neck, 40 then 80 mg/kg, postnatal day 3, p<0.05",27.4%
same,retinal vasculature compared to sham injected mice (images),"[6]; neonatal mice, subcutaneous injection in the nape of the neck, FIG. 6B",abrogated
same,TUNEL positive cells in the retinal vasculature,"[6]; neonatal mouse retinal wholemount, GS-IB4 lectin co-staining, rare event",TUNEL positive cells that co-localized to the retinal endothelium
COc1ccc(C2=N[C@@H](c3ccc(Cl)cc3)[C@@H](c3ccc(Cl)cc3)N2C(=O)N2CCNC(=O)C2)c(OC(C)C)c1 [Nutlin-3A],cell viability of p53 siRNA infected HUVECs,[7],p53 siRNA infected cells had become resistant
same,"HUVEC growth / cell viability, time course","HUVECs [8]; 7.5 μM, unstimulated, serum free HUVEC, by 36 hours",near complete cell death
same,HUVEC proliferation,"HUVECs [8]; 1, 5 or 10 μM, serum free HUVECs unchallenged or challenged with VEGF-A or FGF-2",inhibit HUVEC proliferation at all tested doses with greater activity at higher concentrations
same,p53 response (immunofluorescence and Western blot),p53 [9],initiated a p53 response; also recorded: increased p53 expression
same,TUNEL positive cells (apoptosis),HUVECs [10],significantly more cells undergoing apoptosis
same,"HUVSMC proliferation, time course","HUVSMCs [11]; 7.5 μM, serum free HUVSMCs activated with FGF-2 or 5% FBS, at 48 to 72 hours",growth inhibited
same,HUVSMC early response to increasing concentrations,"HUVSMCs [11]; 7.5, 15, 30 μM, serum free, unchallenged HUVSMCs, at 36 hours, p>0.05",did not find an early response
same,p53 and p21 protein (Western blot),p53 [12],"increased p53 protein, and its downstream target p21"
same,dose dependence of capillary tube formation inhibition,HUVECs [13]; 5 and 7.5 μM,dose dependent
same,reduction in capillary tube formation,"HUVECs [13]; HUVEC on Matrigel, compared to control",93%
same,double positive annexin V and propidium iodide cells (late apoptosis),HUVECs [14],significantly more double positive annexin V and propidium iodide cells
same,annexin V and propidium iodide staining (apoptosis),HUVSMCs [15],no significant difference
COc1ccc(C2=N[C@H](c3ccc(Cl)cc3)[C@H](c3ccc(Cl)cc3)N2C(=O)N2CCNC(=O)C2)c(OC(C)C)c1 [Nutlin-3B],HUVEC proliferation,HUVECs [8]; 10 μM,little effect on HUVEC proliferation

# — patent US20130225603A1, “MDM2 INHIBITORS FOR TREATMENT OF OCULAR CONDITIONS” (SERRATA LLC, priority 2010, published 2013)
